# In patent US9556165B2 (priority 2012, dated 2017):
# Tests used:
# Experiment in all cases: MIC determination, broth microdilution (CLSI)
# Type in all cases: cell-based
# M. catarrhalis ICB489 = conditions: Moraxella catarrhalis, ICB489, strain 12
# strain 20 = tested on: strain 20
# strain 19 = tested on: strain 19
# M. morganii 126/3048 = conditions: Morganella morganii, 126/3048, strain 5
# E. coli J62-TEM-3 = conditions: Escherichia coli, J62TEM3, read-out: strain 18 MIC, strain 18
# strain 21 = tested on: strain 21
# E. cloacae 34654 = conditions: Enterobacter cloacae, 34654, strain 3
# S. pneumoniae 113 = conditions: Streptococcus pneumoniae, 113, strain 14; read-out: strain 14 MIC
# S. aureus 133 = conditions: Staphylococcus aureus, 133, strain 11; read-out: strain 11 MIC
# P. aeruginosa PAO1 = conditions: Pseudomonas aeruginosa, PAO1, strain 6
# C. freundii K21/3034 = conditions: Citrobacter freundii, K21/3034, strain 4
# B. fragilis 6688 = conditions: Bacteroides fragilis, 6688, strain 15; read-out: strain 15 MIC
# [1] = tested on: P. aeruginosa 2297 (AmpC wt); conditions: Pseudomonas aeruginosa, strain 7
# E. coli J62 = conditions: Escherichia coli, J62, strain 17; read-out: strain 17 MIC
# K. pneumoniae 60 = conditions: Klebsiella pneumoniae, 60, strain 2
# A. baumannii ATCC15308 = conditions: Acinetobacter baumannii, ATCC15308, strain 9
# H. influenzae ATCC 49247 = conditions: Haemophilus influenzae, ATCC49247, strain 13; read-out: strain 13 MIC
# [2] = tested on: P. aeruginosa 2297-con (AmpC derepressed); conditions: Pseudomonas aeruginosa, read-out: strain 8 MIC, strain 8
# E. coli ATCC25922 = conditions: Escherichia coli, ATCC25922, strain 1
SMILES,MIC (M. catarrhalis ICB489),MIC (strain 20),MIC (strain 19),MIC (M. morganii 126/3048),MIC (E. coli J62-TEM-3),MIC (strain 21),MIC (E. cloacae 34654),MIC (S. pneumoniae 113),MIC (S. aureus 133),MIC (P. aeruginosa PAO1),MIC (C. freundii K21/3034),MIC (B. fragilis 6688),MIC [1],MIC (E. coli J62),MIC (K. pneumoniae 60),MIC (A. baumannii ATCC15308),MIC (H. influenzae ATCC 49247),MIC [2],MIC (E. coli ATCC25922)
"C[C@H]1[C@H](NC(=O)/C(=N\OCCOc2nc(C(=N)N)cs2)c2csc(N)n2)C(=O)N1S(=O)(=O)O [Example 31, (2S,3S)-3-{[(2Z)-2-(2-Amino-1,3-thiazol-4-yl)-2-({2-[(4-carbamimidoyl-1,3-thiazol-2-yl)oxy]ethoxy}imino)acetyl]amino}-2-methyl-4-oxoazetidine-1-sulfonic acid]",0.25 µg/mL,0.25 µg/mL,0.125 µg/mL,0.25 µg/mL,32 µg/mL,0.25 µg/mL,0.25 µg/mL,8 µg/mL,≤ 0.063 µg/mL,8 µg/mL,≤ 0.063 µg/mL,4 µg/mL,8 µg/mL,0.25 µg/mL,≤ 0.063 µg/mL,1 µg/mL,0.25 µg/mL,32 µg/mL,0.125 µg/mL
"C[C@H]1[C@H](NC(=O)/C(=N\OCCOc2ccc(C(=N)N)cc2N)c2csc(N)n2)C(=O)N1S(=O)(=O)O [Example 35, (2S,3S)-3-{[(2Z)-2-{[2-(2-Amino-4-carbamimidoylphenoxy)ethoxy]imino}-2-(2-amino-1,3-thiazol-4-yl)acetyl]amino}-2-methyl-4-oxoazetidine-1-sulfonic acid]",1 µg/mL,8 µg/mL,2 µg/mL,1 µg/mL,32 µg/mL,4 µg/mL,4 µg/mL,32 µg/mL,0.25 µg/mL,16 µg/mL,2 µg/mL,16 µg/mL,16 µg/mL,4 µg/mL,2 µg/mL,2 µg/mL,1 µg/mL,32 µg/mL,2 µg/mL
"C[C@H]1[C@H](NC(=O)/C(=N\OCCOc2ccc(C(=N)N)cn2)c2csc(N)n2)C(=O)N1S(=O)(=O)O [Example 5, (2S,3S)-3-{[(2Z)-2-(2-Amino-1,3-thiazol-4-yl)-2-({2-[(5-carbamimidoylpyridin-2-yl)oxy]-ethoxy}imino)acetyl]amino}-2-methyl-4-oxoazetidine-1-sulfonic acid]",0.25 µg/mL,0.25 µg/mL,0.25 µg/mL,0.125 µg/mL,16 µg/mL,0.25 µg/mL,0.125 µg/mL,4 µg/mL,0.125 µg/mL,4 µg/mL,0.25 µg/mL,8 µg/mL,4 µg/mL,0.5 µg/mL,≤ 0.063 µg/mL,1 µg/mL,0.5 µg/mL,32 µg/mL,0.25 µg/mL
"C[C@H]1[C@H](NC(=O)/C(=N\OCCOc2ccc(C(=N)N)nc2)c2csc(N)n2)C(=O)N1S(=O)(=O)O [Example 3, (2S,3S)-3-{[(2Z)-2-(2-Amino-1,3-thiazol-4-yl)-2-({2-[(6-carbamimidoylpyridin-3-yl)oxy]ethoxy}imino)acetyl]amino}-2-methyl-4-oxoazetidine-1-sulfonic acid]",0.125 µg/mL,0.125 µg/mL,0.125 µg/mL,0.125 µg/mL,16 µg/mL,0.25 µg/mL,0.125 µg/mL,8 µg/mL,≤ 0.063 µg/mL,2 µg/mL,≤ 0.063 µg/mL,8 µg/mL,4 µg/mL,0.25 µg/mL,≤ 0.063 µg/mL,1 µg/mL,0.5 µg/mL,16 µg/mL,0.125 µg/mL
"C[C@H]1[C@H](NC(=O)/C(=N\OCCNc2ccc(C(=N)N)cc2)c2csc(N)n2)C(=O)N1S(=O)(=O)O [Example 8, (2S,3S)-3-{[(2Z)-2-(2-Amino-1,3-thiazol-4-yl)-2-({2-[(4-carbamimidoylphenyl)amino]ethoxy}imino)acetyl]amino}-2-methyl-4-oxoazetidine-1-sulfonic acid]",0.5 µg/mL,4 µg/mL,2 µg/mL,0.25 µg/mL,,4 µg/mL,2 µg/mL,8 µg/mL,0.25 µg/mL,8 µg/mL,0.5 µg/mL,16 µg/mL,32 µg/mL,4 µg/mL,0.5 µg/mL,4 µg/mL,1 µg/mL,32 µg/mL,1 µg/mL
